US7012098B2, “Inhibitors of inducible nitric oxide synthase for chemoprevention and treatment of cancers” (Pharmacia Corporation, priority 2001, dated 2006)
Structures can show the parent of a compound that is named as a salt.

Columns and labels:
intestinal tumorigenesis = conditions: APC^Δ716 mice; cited from earlier work
COX-1 = target: T1, COX-1 (Rattus norvegicus, UniProt Q63921); assay: Colonic mucosal COX-1 activity after dietary treatment; format: in vivo, male F344 rats; conditions: 1800 ppm in diet; AOM-treated rats, colonic mucosa; Mean ± SEM
T1 sequence (Q63921 27-602): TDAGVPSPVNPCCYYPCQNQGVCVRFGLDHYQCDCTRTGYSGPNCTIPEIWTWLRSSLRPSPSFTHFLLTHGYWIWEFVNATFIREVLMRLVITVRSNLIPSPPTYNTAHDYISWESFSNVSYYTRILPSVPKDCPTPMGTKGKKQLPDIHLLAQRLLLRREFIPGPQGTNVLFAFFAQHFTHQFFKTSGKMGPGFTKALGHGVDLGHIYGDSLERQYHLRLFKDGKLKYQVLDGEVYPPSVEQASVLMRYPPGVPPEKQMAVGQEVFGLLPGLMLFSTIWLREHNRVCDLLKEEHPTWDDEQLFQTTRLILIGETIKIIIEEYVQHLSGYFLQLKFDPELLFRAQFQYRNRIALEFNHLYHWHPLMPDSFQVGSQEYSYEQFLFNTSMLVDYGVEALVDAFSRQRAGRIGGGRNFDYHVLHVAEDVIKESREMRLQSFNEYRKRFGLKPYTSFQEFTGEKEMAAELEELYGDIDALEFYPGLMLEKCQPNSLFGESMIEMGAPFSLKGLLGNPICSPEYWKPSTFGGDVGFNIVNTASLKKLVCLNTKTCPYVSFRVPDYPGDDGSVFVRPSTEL
Procedure: (§1) For determining COX-2 activity, proteins were preincubated with 50 μM of aspirin to block the activity of COX-1. After incubation at 37° C. for 15 min, the reaction was terminated by adding 40 μl of 0.2 M HCl. The COX-mediated metabolites of arachidonic acid were extracted with ethyl acetate (3×0.5 ml). The combined extracts were evaporated to dryness under N2, redissolved in chloroform, and subjected to thin layer chromatography on precoated TLC plastic plates (silica G 60, 20×20 cm, layer thickness 150 μm). […] The metabolites of ^14C-AA corresponding to PGE2, PGF2α, PGD2, 6-Keto PGF1α, and TXB2 were detected by their comigration (Rf-values) with authentic standards. The area of each metabolite was determined in a Bioscan System 200 image scanning counter (Bioscan Inc., Washington, D.C.) equipped with β-detector.

NOS = assay: Colonic mucosal NOS activity after dietary treatment; format: in vivo, male F344 rats; conditions: 1800 ppm in diet; AOM-treated rats, colonic mucosa; Mean ± SEM
Procedure: (§2) In Vivo Assay of Modulation of Colonic Mucosal Activities of NOS and COX isoforms by iNOS and COX-2 Inhibitors
(§3) NOS and iNOS activities were determined in colonic samples as prepared and described above. Conversion of L-arginine to L-citrulline was measured by a modification of an earlier described method (Rao et al, Carcinogenesis 21, supra; Ambs et al., Cancer Res. 58:334-41, 1998, which is herein incorporated by reference). The assay was carried out by adding 100 μg sample protein to 150 μl of assay buffer [50 mM HEPES, 1 mM DTT, 1 mM MgCl2, 5 mg/L pepstatin A, 0.1 mM PMSF, and 3 mg/L aprotinin, pH 7.4] containing 70 μM arginine, 250,000 dpm L-[^3H]-arginine, 2 mM NADPH, 5μM tetrahydro biopterin, 5 μM flavin adenine dinucleotide, and 0.5 mM CaCi2 to measure total NOS activity, or 1 mM EGTA (without calcium) to determine Ca+^2-independent iNOS activity. After 30 min at 37° C., the reaction was stopped with 100 μl of 1M trichloroacetic acid. Then the samples were adjusted to pH 4.6 by adding 500 μl of 20 mM HEPES and loaded on to Dowex AG 50W-X8 resin columns. L-[^3H]-citrulline was eluted and separated on TLC. Radioactivity was counted by a BioScan Radiomatic detector. Results are expressed as pmol L-[^3H]-citrulline released/mg protein/min.

AOM-induced colonic ACF = assay: Chemopreventive effects in rats with azoxymethane-induced aberrant crypt foci; format: in vivo, male F344 rats
Text: In Vivo Assay of Chemopreventive Effects of Therapeutic Compounds in Rats with Azoxymethane-induced Aberrant Crypt Foci
Azoxymethane (AOM) (CAS:25843-45-2) was purchased from Ash Stevens (Detroit, Mich.). iNOS and COX-2 selective inhibitors were provided by Pharmacia, (St. Louis, […].). Sulindac, a non-selective inhibitor of COX-isoforms and a known inhibitor of colon carcinogenesis, was supplied by the Chemoprevention Branch of the National Cancer Institute (Bethesda, Md.). Weanling male F344 rats were purchased from Charles River Breeding Laboratories (Kingston, N.Y.). All ingredients of the semipurified diet were obtained from Dyets Inc., (Bethlehem, Pa.) and were stored at 4° C. until the experimental diets were prepared. The rats were held in quarantine for 1 week and had access to modified AIN-76A semipurified control diet (Reddy et al., Cancer Res. 50: 2562-2568, 1990, which is herein incorporated by reference.). They were randomly distributed into various dietary groups and were transferred to an animal holding room where they were housed, three rats to a plastic cage, under controlled conditions of a 12-h light/12-h dark cycle, 50% relative humidity and 21° C. room temperature. Experimental diets were prepared by mixing chemopreventive agents with modified AIN-76A control diet.
To quantify aberrant crypt foci, after a minimum of 24 h in buffered formalin, the colons were cut into 2-cm segments starting at the anus; for the next 5-10 min they were placed in a Petri dish containing 0.2% methylene blue in Krebs Ringer solution. They were then placed, mucosal side up, on a microscope slide and observed through a light microscope. Aberrant crypt foci were recorded according to standard procedures that are being used routinely in our laboratory (Rao et al., Carcinogenesis 21: 617-21, 2000; Rao et al., Cancer Res. 53:4182-88, 1993, which are herein incorporated by reference.). […] The parameters used to assess the aberrant crypts were their occurrence and multiplicity. Crypt multiplicity was determined as the number of crypts in each focus and categorized as containing up to 3, or 4 or more aberrant crypts/focus.

COX-2 = target: T2, COX-2 (Rattus norvegicus, UniProt P35355); assay: Colonic mucosal COX-2 activity after dietary treatment; format: in vivo, male F344 rats; conditions: 1800 ppm in diet; AOM-treated rats, colonic mucosa; Mean ± SEM
T2 sequence (P35355 18-604): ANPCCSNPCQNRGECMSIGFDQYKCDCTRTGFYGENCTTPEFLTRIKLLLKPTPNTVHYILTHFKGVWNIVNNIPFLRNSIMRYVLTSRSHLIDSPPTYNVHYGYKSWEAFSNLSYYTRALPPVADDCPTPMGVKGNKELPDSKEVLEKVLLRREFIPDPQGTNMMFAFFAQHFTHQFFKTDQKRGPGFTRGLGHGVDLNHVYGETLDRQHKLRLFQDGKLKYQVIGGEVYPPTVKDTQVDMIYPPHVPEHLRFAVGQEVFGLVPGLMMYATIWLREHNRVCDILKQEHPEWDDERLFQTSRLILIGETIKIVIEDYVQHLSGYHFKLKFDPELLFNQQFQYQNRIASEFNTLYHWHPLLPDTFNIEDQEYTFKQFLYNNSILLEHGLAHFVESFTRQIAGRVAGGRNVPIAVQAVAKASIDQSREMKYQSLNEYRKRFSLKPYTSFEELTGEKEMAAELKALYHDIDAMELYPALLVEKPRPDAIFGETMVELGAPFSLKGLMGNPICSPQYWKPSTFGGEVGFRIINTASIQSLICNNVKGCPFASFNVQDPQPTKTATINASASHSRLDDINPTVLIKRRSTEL
Procedure: as §1

iNOS = iNOS (Rattus norvegicus, UniProt Q06518); assay: Colonic mucosal iNOS activity after dietary treatment; format: in vivo, male F344 rats
Procedure: as §2, §3

i-NOS = i-NOS (Homo sapiens, UniProt P35228); assay: i-NOS inhibition, comparison with NIL amides; format: biochemical; conditions: compared with NIL amide or NIL dimethylamide
Sequence of i-NOS (P35228 whole entry): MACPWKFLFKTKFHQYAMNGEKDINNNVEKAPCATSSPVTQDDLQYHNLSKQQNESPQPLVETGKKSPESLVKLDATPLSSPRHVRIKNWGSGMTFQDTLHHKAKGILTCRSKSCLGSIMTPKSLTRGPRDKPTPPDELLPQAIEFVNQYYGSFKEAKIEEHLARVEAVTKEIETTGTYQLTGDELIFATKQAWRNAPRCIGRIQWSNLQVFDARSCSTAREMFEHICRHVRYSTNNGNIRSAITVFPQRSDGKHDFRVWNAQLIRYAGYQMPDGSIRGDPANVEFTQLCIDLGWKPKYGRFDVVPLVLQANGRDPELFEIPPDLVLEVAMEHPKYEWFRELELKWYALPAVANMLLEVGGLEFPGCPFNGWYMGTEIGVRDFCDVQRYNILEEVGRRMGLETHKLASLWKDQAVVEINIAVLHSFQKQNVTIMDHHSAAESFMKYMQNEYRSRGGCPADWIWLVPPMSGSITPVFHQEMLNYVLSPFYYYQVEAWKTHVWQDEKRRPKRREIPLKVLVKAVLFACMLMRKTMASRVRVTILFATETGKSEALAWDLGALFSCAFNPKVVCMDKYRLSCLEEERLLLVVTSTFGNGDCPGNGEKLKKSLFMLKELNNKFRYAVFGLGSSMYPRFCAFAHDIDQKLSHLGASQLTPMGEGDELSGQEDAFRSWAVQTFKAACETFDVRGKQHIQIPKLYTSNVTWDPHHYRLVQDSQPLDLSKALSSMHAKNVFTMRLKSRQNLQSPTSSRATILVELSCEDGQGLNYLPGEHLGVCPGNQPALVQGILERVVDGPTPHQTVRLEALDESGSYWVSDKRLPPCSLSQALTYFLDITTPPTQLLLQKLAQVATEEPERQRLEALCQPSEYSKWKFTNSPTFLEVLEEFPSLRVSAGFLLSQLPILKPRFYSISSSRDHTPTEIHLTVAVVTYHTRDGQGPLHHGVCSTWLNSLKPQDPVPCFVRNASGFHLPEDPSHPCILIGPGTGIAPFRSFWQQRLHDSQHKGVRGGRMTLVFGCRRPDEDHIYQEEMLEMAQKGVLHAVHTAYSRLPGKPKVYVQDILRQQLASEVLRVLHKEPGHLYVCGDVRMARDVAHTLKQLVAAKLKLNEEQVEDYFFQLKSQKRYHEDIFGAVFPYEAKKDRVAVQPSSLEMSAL

[1] = 1800 ppm in diet, AOM-treated male F344 rats, Mean ± SEM

CS(=O)(=O)c1ccc(C2=C(c3ccc(F)c(F)c3)C(=O)OC2)cc1 [MF-Tricyclic]
intestinal tumorigenesis (intestinal tumorigenesis): blocks

N=C(N)NN [aminoguanidine]
COX-Activity, COX-1 (COX-1): 10.8 ± 1.9 pmoles [^14C]-AA metabolized/m
NOS Activity, NOS (NOS): 7.9 ± 1.7 pmoles [^3H]-citrulline/mg pro
Foci containing 1 Crypt (AOM-induced colonic ACF; [1]): 28.0 ± 2.4
Foci containing 2 Crypt (AOM-induced colonic ACF; [1]): 29.3 ± 1.3
Foci containing 3 Crypt (AOM-induced colonic ACF; [1]): 17.8 ± 1.0
Foci containing ≧4 Crypts (AOM-induced colonic ACF; [1]): 14.6 ± 1.8
Total ACF incidence (AOM-induced colonic ACF; [1]): 89.8 ± 4.5
effect on AOM-induced total colonic ACF and multicrypt clusters of 4 or more crypts (AOM-induced colonic ACF; 1,800 ppm, compared to control diet): suppressed
COX-Activity, COX-2 (COX-2): 1.2 ± 0.2 pmoles [^14C]-AA metabolized/m
suppression of AOM-induced colonic mucosal iNOS activity (iNOS; 1800 ppm): 50%
NOS Activity, iNOS (iNOS; 1800 ppm in diet, AOM-treated rats, colonic mucosa, Mean ± SEM): 1.1 ± 0.1 pmoles [^3H]-citrulline/mg pro

CC(=NO)NC/C(F)=C\CC[C@H](N)C(=O)O [Example G, (2S,5E)-2-amino-6-fluoro-7-[(1-hydroximinoethyl)amino]-5-heptenoic acid]
melting point: 198 to 200 °C

CC(=N)NCCCC[C@H](N)C(=O)Nc1nnn[nH]1 [Example NN, 2S-amino-6-[(1-iminoethyl)amino]-N-(1H-tetrazol-5-yl)hexanamide, hydrate, dihydrochloride]
i-NOS inhibitor potency (i-NOS): more potent
